The values below come from patent publication US20140044690A1, “High-Energy Compounds for Use in Alzheimer's and Other Neurodegenerative Diseases” (University Of South Florida, priority 2012, published 2014).

Data set [1] relates to APP α-processing. Nature of the data set: APP secretion assay (sAPPα release, Western blotting) in SH-SY5Y cells. It is filed as cell-based, human. Particulars: for effect on APP α-processing / APP secretion (in words) / sAPPα release relative to basal line: 2 hours; for effect on APP α-processing / APP secretion (in words): compared with ATP, acetyl-coA, PCr; for sAPPα release relative to basal line: 1 mM each. Here is the method:
(§1) SH-SY5Y and fibroblast cells were routinely maintained in DMEM supplemented with 10% bovine fetal serum and 100 μg/ml of streptomycine and 100 U/ml of penicillin. For APP secretion assay, the cells were subcultured in the 12-well plate until confluence and then pre-incubated in the serum-free DMEM for 1 hour before the addition of the testing agents. After incubation for 2 hours at 37° C., conditioned medium was collected and cleared by centrifugation. Proteins were precipitated by trichloroacetic acid and processed for gel electrophoresis and Western blotting as described previously (Weidemann et al. 1989; Chen and Fernandez, 2004). A near-infrared dye-conjugated secondary antibody (LI-COR Biosci., NE, USA) was used and visualized with a LI-COR Odyssey Infrared Imaging System.
Background: In western blotting, separated proteins are transferred to a membrane and probed.

Data set [2] deals with APP α-processing. Nature of the data set: APP secretion assay (sAPPα release) in human skin fibroblasts from young and aged donors. It is filed as cell-based. Particulars: for sAPPα release in aged cells, of the young cell level: aged human skin fibroblasts (donor age 81-96), 0.5 mM each, untreated aged cells 42.5%; for sAPPα level, of the control, co-treatment with rotenone: 0.2 μM rotenone two hours; for sAPPα level, of the control, co-treatment with rotenone / sAPPα level, of the control, co-treatment with H2O2: co-treatment 1.5 mM each; for sAPPα level, of the control, co-treatment with H2O2: 0.2 mM H2O2 two hours. On the procedure:
as §1

Data set [3] concerns SH-SY5Y cells. The experiment in a line: Cell survival and viability MTT assay / microscopy in SH-SY5Y cells. It is filed as cell-based. Particulars: for cell survival, of the untreated control, rotenone-induced death: 2 days, pre-incubation 1 mM each; for cell survival in H2O2-induced death (in words): H2O2 (not shown); for cell survival, of the control, H2O2-induced death: 0.6 mM H2O2, by 20 hours, pre-treatment 1 mM each. On the procedure:
SH-SY5Y cells were subcultured in the 12-well plate in DMEM containing 10% fetal bovine serum until 50% confluency. For experiment, the medium was replaced with serum-free DMEM and testing agents were added. The culture was continued in the incubator and parallel samples were taken out at various time intervals for microscopic examination or cell viability assay using an MTT toxicity assay kit (Sigma, Mo.) according to the manufacturer's instructions with modifications (Chen and Fernandez, 2004).
On the technique in general: Formazan colour is commonly taken as a measure of viable cells.

In the case of `Nc1ncnc2c1ncn2[C@@H]1O[C@H](COP(=O)(O)OP(=O)(O)O)[C@@H](O)[C@H]1O` [ADP, adenosine diphosphate, reference compound], the “effect on APP α-processing / APP secretion (in words)” value in data set [1] is listed as “did not show the same effects”.
Regarding `Nc1ncnc2c1ncn2[C@@H]1O[C@H](COP(=O)(O)OP(=O)(O)OP(=O)(O)O)[C@@H](O)[C@H]1O` [ATP, adenosine triphosphate], in data set [2], the “sAPPα release in aged cells, of the young cell level” value is given as 82.3%. Further, in data set [2] (young fibroblasts), the “sAPPα level, of the control, co-treatment with rotenone” value turned out to be 79.2% and the “sAPPα level, of the control, co-treatment with H2O2” value is listed as 89.3%. In addition, the “cell survival, of the untreated control, rotenone-induced death” value (“cell survival, of the untreated control” for short) in data set [3] (0.2 μM rotenone, MTT) was found to be 15%. For the same molecule, the “cell survival in H2O2-induced death (in words)” value in data set [3] is listed as “moderately increased cell survival”. In addition, the “sAPPα release relative to basal line” value in data set [1] is reported as 3.3 fold. Besides, the EC50 (in general, the concentration needed to bring the measured effect to its halfway point) in data set [1] (Homo sapiens, read-out: EC50 for promoting sAPPα release) worked out at 480 µM. Further, the “stimulatory effect on sAPPα release in the presence of NaN3” value in data set [1] (NaN3 25 mM pre-incubated 15 minutes) is on record as “completely abolished”. Moreover, the “stimulatory effect on sAPPα release in the presence of rotenone” value in data set [1] (rotenone 20 μM pre-incubated 15 minutes) is “completely abolished”.
With `CC(C)(COP(=O)(O)OP(=O)(O)OC[C@H]1O[C@@H](n2cnc3c(N)ncnc32)[C@H](O)[C@@H]1OP(=O)(O)O)[C@@H](O)C(=O)NCCC(=O)NCCS` [CoA, coenzyme A, reference compound], the “effect on APP α-processing / APP secretion (in words)” value in data set [1] is recorded as “did not show the same effects”.
Consider `CN(CC(=O)O)C(=N)N` [Cr, creatine, reference compound], for which the “effect on APP α-processing / APP secretion (in words)” value in data set [1] is reported as “did not show the same effects”.
Turning to `Nc1nc2c(ncn2[C@@H]2O[C@H](COP(=O)(O)OP(=O)(O)OP(=O)(O)O)[C@@H](O)[C@H]2O)c(=O)[nH]1` [GTP, guanosine triphosphate], in data set [3] (0.2 μM rotenone, MTT), the “cell survival, of the untreated control” value was determined as 17%. Besides, the “cell survival in H2O2-induced death (in words)” value in data set [3] is on record as “moderately increased cell survival”.
For `OO` [H2O2, reference compound], the “sAPPα release, of the young cell control, H2O2 alone” value in data set [2] (young fibroblasts, 0.2 mM H2O2, two hours) was 46.1%. Also, the “cell death caused by H2O2 alone” value in data set [3] (0.6 mM H2O2) is given as “killed all cells by 10 hours”.
Regarding `CN(CC(=O)O)C(=N)NP(=O)(O)O` [PCr, phosphocreatine], the “sAPPα release in aged cells, of the young cell level” value in data set [2] was 79.6%. For the same molecule, the “cell survival, of the untreated control” value in data set [3] (0.2 μM rotenone, MTT) is on record as 42%. For the same molecule, the “cell survival, of the control, H2O2-induced death” value (from here on “cell survival, of the control”) in data set [3] is 49%. Also, the “sAPPα release relative to basal line” value in data set [1] was determined as 4.2 fold.
With `C=C(OP(=O)(O)O)C(=O)O` [PEP, phosphoenol pyruvate], the “sAPPα level, of the control, co-treatment with rotenone” value in data set [2] (young fibroblasts) was 90.3%. Further, the “cell survival, of the untreated control” value in data set [3] (0.2 μM rotenone, MTT) was found to be 53%. Moreover, the “cell morphology under microscopy, rotenone-induced death” value in data set [3] (0.2 μM rotenone, pre-incubation 1 mM for 30 min) was “substantially preserved the cell shape and the processes”. For the same molecule, in data set [3], the “cell survival, of the control” value is reported as 38%.
`CC(=O)SCCNC(=O)CCNC(=O)[C@H](O)C(C)(C)COP(=O)(O)OP(=O)(O)OC[C@H]1O[C@@H](n2cnc3c(N)ncnc32)[C@H](O)[C@@H]1OP(=O)(O)O` [acetyl-coA, acetyl coenzyme A]: the “sAPPα level, of the control, co-treatment with H2O2” value in data set [2] (young fibroblasts) was determined as 74.5%. Moreover, the “cell survival, of the untreated control” value in data set [3] (0.2 μM rotenone, MTT) came to 35%. Further, in data set [3], the “cell survival, of the control” value stood at 21%. In addition, the “sAPPα release relative to basal line” value in data set [1] is on record as 3.8 fold.
For the molecule `N[C@@H](CCC(=O)O)C(=O)O` [glutamate, reference compound], the “sAPPα release relative to basal line” value in data set [1] worked out at 2.3 fold.
As to `C=C(C)[C@H]1Cc2c(ccc3c2O[C@@H]2COc4cc(OC)c(OC)cc4[C@@H]2C3=O)O1` [rotenone, reference compound], in data set [2] (young fibroblasts, 0.2 μM rotenone, two hours), the “sAPPα level, of the control, rotenone alone” value turned out to be 52.3%. Further, the “cell death caused by rotenone alone” value in data set [3] (0.2 μM rotenone, MTT) is listed as “caused all cells to die by 2 days”.
